pIC50: −log10 of the molar value. Some results are limits rather than exact numbers.

By pIC50 is commonly meant the negative decadic logarithm of the IC50, by convention in mol/L. A lower pIC50 goes with a large IC50.

The experiment deals with HBsAg. Briefly: microbe, parasite or virus in culture. To be noted: Hepatitis B virus, HepG2.2.15.
Protocol: HepG2.2.15 cells (Acs et al. Proc Natl Acad Sci USA, 84, (1987), 4641-4), a constitutively HBV-expressing cell line were cultured in DMEM+Glutamax-I medium (Invitrogen, Carlsbad, Calif., USA), supplemented with 10% fetal bovine serum (Invitrogen) and G418 (Invitrogen) at a final concentration of 200 mg/L and maintained in 5% CO2 at 37° C.
HepG2.2.15 cells were seeded in duplicate into white, 96-well plates at 1.5×10^4 cells/well. The cells were treated with a three-fold serial dilution series of the compounds in DMSO. The final DMSO concentration in all wells was 1% and DMSO was used as no drug control.
The HBsAg chemiluminescence immunoassay (CLIA) kit (Autobio Diagnostics Co., Zhengzhou, China, Catalog number: CL0310-2) was used to measure the levels of secreted HBV antigens semi-quantitatively. For the detection 50 μL/well culture supernatant was used and HBsAg was quantified using HBsAg chemiluminescence immunoassay (CLIA) kit (Autobio Diagnostics Co., Zhengzhou, China, Catalog number: CL0310-2), 50 μL of the supernatant was transferred to the CLIA assay plate and 50 μL of enzyme conjugate reagent was added into each well. The plates were sealed and gently agitated for 1 hour at room temperature. The supernatant-enzyme-mixture was discarded and wells were washed 6 times with 300 μL of PBS. The residual liquid was removed by plating the CLIA plate right side down on absorbent tissue paper. 25 μL of substrates A and B were added to each well. Luminance was measured using a luminometer (Mithras LB 940 Multimode Microplate Reader) after 10 minutes incubation. Dose-response curves were generated and the IC50 value was extrapolated by using the E-WorkBook Suite (ID Business Solutions Ltd., Guildford, UK). The IC50 was defined as the compound concentration (or conditioned media log dilution) at which HBsAg secretion was reduced by 50% compared to the no drug control.
The compounds of the present invention were tested for their activity to inhibit HBsAg as described herein.
As to `COCCCOc1cc2c(cc1Cl)-c1cc(=O)c(C(=O)O)cn1[C@@H]1CCCCC[C@@H]21` (relative stereo) [Example 27, Trans-13-chloro-12-(3-methoxypropoxy)-2-oxo-2,5a,6,7,8,9,10,10a-octahydrocyclohepta[c]pyrido[2,1-a]isoquinoline-3-carboxylic acid], the pIC50 is 7.70. For `COCCCOc1cc2c(cc1OC)-c1cc(=O)c(C(=O)O)cn1[C@H]1CCN(C(=O)OCc3ccccc3)C[C@H]21` (relative stereo) [Example 29, Trans-2-((benzyloxy)carbonyl)-11-methoxy-12-(3-methoxypropoxy)-8-oxo-2,3,4,4a,8,13b-hexahydro-1H-benzo[c]pyrido[1,2-a][1,6]naphthyridine-7-carboxylic acid] the value was 6.82. For `COCCCOc1cc2c(cc1OC)-c1cc(=O)c(C(=O)O)cn1[C@H]1CCN(C(=O)OCc3ccccc3)C[C@@H]21` (relative stereo) [Example 30, cis-2-((benzyloxy)carbonyl)-11-methoxy-12-(3-methoxypropoxy)-8-oxo-2,3,4,4a,8,13b-hexahydro-1H-benzo[c]pyrido[1,2-a][1,6]naphthyridine-7-carboxylic acid] the value was 6.25; for `COc1cc2c(cc1OCc1ccccc1)[C@@H]1CCCC[C@@H]1n1cc(C(=O)O)c(=O)cc1-2` (relative stereo) [Example 32, cis-12-benzyloxy-11-methoxy-8-oxo-1,2,3,4,4a,13b-hexahydropyrido[1,2-f]phenanthridine-7-carboxylic acid], 7.36. For `COCCCOc1cc2c(cc1OC)-c1cc(=O)c(C(=O)O)cn1[C@@H]1CCOC[C@@H]21` (relative stereo) [Example 33, Trans-11-methoxy-12-(3-methoxypropoxy)-8-oxo-1,3,4,4a,8,13b-hexahydropyrano[4,3-c]pyrido[2,1-a]isoquinoline-7-carboxylic acid] the value was 6.58. `COCCCOc1cc2c(cc1OC)-c1cc(=O)c(C(=O)O)cn1[C@@H]1CCOC[C@H]21` (relative stereo) [Example 34, cis-11-methoxy-12-(3-methoxypropoxy)-8-oxo-1,3,4,4a,8,13b-hexahydropyrano[4,3-c]pyrido[2,1-a]isoquinoline-7-carboxylic acid] gave a pIC50 of 6.73.

On to `COCCCOc1cc2c(cc1OC)-c1cc(=O)c(C(=O)O)cn1[C@@H]1CCS(=O)(=O)C[C@@H]21` (relative stereo) [Example 37, Trans-11-methoxy-12-(3-methoxypropoxy)-8-oxo-1,3,4,4a,8,13b-hexahydropyrido[2,1-a]thiopyrano[4,3-c]isoquinoline-7-carboxylic acid 2,2-dioxide], for which the pIC50 is 5.66. As to `COc1cc2c(cc1C)[C@H]1CCC(C)(C)[C@H]1n1cc(C(=O)O)c(=O)cc1-2` (relative stereo) [Example 38, Cis-10-methoxy-3,3,11-trimethyl-7-oxo-1,2,3,3a,7,12b-hexahydrocyclopenta[c]pyrido[2,1-a]isoquinoline-6-carboxylic acid], the pIC50 is 7.44. For `CCCc1cc2c(cc1OC)-c1cc(=O)c(C(=O)O)cn1[C@H]1[C@@H]2CCC1(C)C` (relative stereo) [Example 40, Cis-10-methoxy-3,3-dimethyl-7-oxo-11-propyl-1,2,3,3a,7,12b-hexahydrocyclopenta[c]pyrido[2,1-a]isoquinoline-6-carboxylic acid] the value was 7.72; for `COc1cc2c(cc1N1CCCC1)[C@H]1CCC(C)(C)[C@H]1n1cc(C(=O)O)c(=O)cc1-2` (relative stereo) [Example 41, Cis-10-methoxy-3,3-dimethyl-7-oxo-11-(pyrrolidin-1-yl)-1,2,3,3a,7,12b-hexahydrocyclopenta[c]pyrido[2,1-a]isoquinoline-6-carboxylic acid], greater than 8.80.
